# Source: patent US20100022559A1, “BISOXIMES AS FUNGICIDES” (BAYER CROPSCIENCE AG, priority 2006, published 2010)
# Test: logP determination by HPLC on a reversed-phase column (C 18), EEC Directive 79/831 Annex V.A8
# Format: physicochemical
# Settings: method marked [b] in Table 1
# Method: The stated logP values were determined in accordance with EEC Directive 79/831 Annex V.A8 by HPLC (high performance liquid chromatography) on a reversed-phase column (C 18). Temperature: 43° C.
row,SMILES,logP
1,"C=C(CON=C(C)c1cccc(C)n1)CON=C(c1cccc(C)n1)C(C)C (single isomer, unassigned) [Compound 672]",3.87^[b] (isomer A)
2,"CC(=NOCC(CON=C(C)c1nc(C)ccc1C)C(C)C)c1nc(C)ccc1C (single isomer, unassigned) [Compound 753]",4.51^[b]

# Same assay, conditions: method marked [c] in Table 1
row,SMILES,logP
1,"CC(=NOCC(CON=C(C)c1nc(C)ccc1C)C(C)C)c1nc(C)ccc1C (single isomer, unassigned) [Compound 753]",5.95^[c]

# Same assay, conditions: method marker [a] (footnote not shown); isomer A / isomer B / isomer mixture as noted in the cell
row,SMILES,logP
1,"Cc1cccc(C(=NOCC(C)CON=C(c2cccc(C)n2)C2CC2)C2CC2)n1 (single isomer, unassigned) [Compound 164]",3.51^]a] (isomer B)
2,"CC(=NOCCCON=C(C)c1ncccc1C)c1ncccc1C (single isomer, unassigned) [compound 84]",2.51^[a] (isomer B)
3,"CC(=NOCCCON=C(C)c1ncccc1C)c1ncccc1C (single isomer, unassigned) [compound 85]",2.15^[a] (isomer A)
4,"Cc1cccc(C(=NOCCCON=C(c2cccc(C)n2)C(C)C)C(C)C)n1 (single isomer, unassigned) [compound 89]",4.45^[a] (isomer A)
5,"CCC(=NOCCCON=C(CC)c1ncccc1C)c1ncccc1C (single isomer, unassigned) [compound 94]",3.65^[a] (isomer B)
6,"CCC(=NOCCCON=C(CC)c1ncccc1C)c1ncccc1C (single isomer, unassigned) [compound 95]",3.11^[a] (isomer A)
7,"Cc1cccnc1C(Cc1ccccc1)=NOCCCON=C(Cc1ccccc1)c1ncccc1C (single isomer, unassigned) [compound 96]",5.54^[a] (isomer B)
8,"CCCC(=NOCCCON=C(CCC)c1ncccc1C)c1ncccc1C (single isomer, unassigned) [compound 98]",4.83^[a] (isomer B)
9,"CCCC(=NOCCCON=C(CCC)c1ncccc1C)c1ncccc1C (single isomer, unassigned) [compound 99]",4.22^[a] (isomer A)
10,"CCC(=NOCC(C)CON=C(CC)c1ncccc1C)c1ncccc1C (single isomer, unassigned) [compound 100]",3.58^[a] (isomer A)
11,"CCC(=NOCC(C)CON=C(CC)c1ncccc1C)c1ncccc1C (single isomer, unassigned) [compound 101]",4.23^[a] (isomer B)
12,"Cc1cccnc1C(CC(C)C)=NOCC(C)CON=C(CC(C)C)c1ncccc1C (single isomer, unassigned) [compound 102]",6.50^[a] (isomer B)
13,"Cc1cccnc1C(Cc1ccccc1)=NOCC(C)CON=C(Cc1ccccc1)c1ncccc1C (single isomer, unassigned) [compound 108]",5.32^[a] (isomer A)
14,"Cc1cccnc1C(Cc1ccccc1)=NOCC(C)CON=C(Cc1ccccc1)c1ncccc1C (single isomer, unassigned) [compound 109]",6.00^[a] (isomer B)
15,"Cc1cccnc1C(CC(C)C)=NOCC(C)CON=C(CC(C)C)c1ncccc1C (single isomer, unassigned) [compound 110]",5.78^[a] (isomer A)
16,"Cc1cccc(C(CC(C)C)=NOCCCON=C(CC(C)C)c2cccc(C)n2)n1 (single isomer, unassigned) [compound 114]",5.92^[a] (isomer A)
17,"Cc1cccc(C(=NOCC(C)CON=C(c2cccc(C)n2)C2CC2)C2CC2)n1 (single isomer, unassigned) [compound 162]",3.28^[a] (isomer A)

# Same assay, conditions: method marker [b]; isomer A / isomer B / isomer mixture as noted in the cell
row,SMILES,logP
1,"C=C(CON=C(C)c1cccc(C)n1)CON=C(C)c1nc(C)cc(OC)n1 (single isomer, unassigned) [Compound 177]",3.08^[b] (isomer A)
2,"C=C(CON=C(C)c1cccc(C)n1)CON=C(C)c1ncccc1C (single isomer, unassigned) [Compound 203]",3.03^[b] (isomer A)
3,"C=C(CON=C(C)c1nc(C)c(C)s1)CON=C(C)c1nc(C)c(C)s1 (single isomer, unassigned) [compound 68]",5.25^[b]
4,"C=C(CON=C(C)c1nc(C)c(C)s1)CON=C(C)c1nc(C)c(C)s1 (single isomer, unassigned) [compound 69]",4.99^[b] (isomer A)
5,"C=C(CON=C(C)c1cccs1)CON=C(C)c1cccs1 (single isomer, unassigned) [compound 77]",4.84^[b] (isomer B)
6,"C=C(CON=C(C)c1cccs1)CON=C(C)c1cccs1 (single isomer, unassigned) [compound 79]","4,56^[b] (isomer A)"
7,"C=C(CON=C(C)c1cccc(C)n1)CON=C(C)c1ncc(C(F)(F)F)cc1Cl (single isomer, unassigned) [compound 135]",4.95^[b] (isomer B)
8,"C=C(CON=C(C)c1cccc(C)n1)CON=C(C)c1ncccc1Cl (single isomer, unassigned) [compound 139]",3.39^[b] (isomer B)
9,"C=C(CON=C(C)c1cccc(C)n1)CON=C(C)c1ncccc1Cl (single isomer, unassigned) [compound 140]",4.40^[b] (isomer A)
10,"C=C(CON=C(C)c1cccc(C)n1)CON=C(CC)c1ncccc1C (single isomer, unassigned) [compound 142]",3.84^[b] (isomer )B
11,"C=C(CON=C(C)c1cccc(C)n1)CON=C(CC)c1ncccc1C (single isomer, unassigned) [compound 143]",3.23^[b] (isomer A)
12,"C=C(CON=C(C)c1cccc(C)n1)CON=C(CC(C)C)c1ncccc1C (single isomer, unassigned) [compound 155]",4.40^[b] (isomer A)
13,"C=C(CON=C(C)c1cccc(C)n1)CON=C(C)c1ncc(C(F)(F)F)cc1Cl (single isomer, unassigned) [compound 157]",4.42^[b] (isomer A)
14,"C=C(CON=C(C)c1cccc(C)n1)CON=C(C)c1ccc(Cl)s1 (single isomer, unassigned) [compound 195]",4.82^[b] (isomer A)
15,"C=C(CON=C(C)c1ccc(C)nc1)CON=C(C)c1cccc(C)n1 (single isomer, unassigned) [compound 200]",1.92^[b] (isomer A)

# Same assay, conditions: value marked [a]
row,SMILES,logP
1,"C=C(CON=C(c1cccc(C)n1)C1CC1)CON=C(c1cccc(C)n1)C1CC1 (single isomer, unassigned) [Compound 311]",3.29^[a] (isomer B)
2,"C=C(CON=C(c1cccc(C)n1)C(C)C)CON=C(c1cccc(C)n1)C(C)C (single isomer, unassigned) [compound 274]",4.87^[a] (isomer B)
3,"C=C(CON=C(c1cccc(C)n1)C(C)C)CON=C(c1cccc(C)n1)C(C)C (single isomer, unassigned) [compound 275]",4.90^[a] (isomer A)
4,"Cc1cccc(C(=NOCC(C)(C)CON=C(c2cccc(C)n2)C2CC2)C2CC2)n1 (single isomer, unassigned) [compound 282]",3.75^[a] (isomer A)

# Same assay, conditions: value marked [b]
row,SMILES,logP
1,"CC(=NOCC(C)CON=C(C)c1nc(C)ccc1C)c1nc(C)ccc1C (single isomer, unassigned) [Compound 267]",2.5^[b] (isomer B)
2,"CCCC(=NOCCCCON=C(C)c1cccc(C)n1)c1ncccc1C (single isomer, unassigned) [Compound 327]",3.61^[b] (isomer A)
3,"C=C(CON=C(C)c1cccc(C)n1)CON=C(C)c1cc(OC)cc(C)n1 (single isomer, unassigned) [Compound 476]",3.33^[b] (isomer B)
4,"CC(=NOCC1(CON=C(C)c2nc(C)ccc2C)CCCC1)c1nc(C)ccc1C (single isomer, unassigned) [Compound 763]",4.76^[b]
5,"CC(=NOCC(C)CON=C(C)c1nc(C)ccc1C)c1nc(C)ccc1C (single isomer, unassigned) [compound 268]",2.08^[b] (isomer A)
6,"C=C(CON=C(C)c1nc(C)ccc1C)CON=C(C)c1nc(C)ccc1C (single isomer, unassigned) [compound 307]",2.37^[b] (isomer A)
7,"C=C(CON=C(C)c1nc(C)ccc1C)CON=C(C)c1nc(C)ccc1C (single isomer, unassigned) [compound 308]",1.84^[b]
8,"CCC(=NOCCCCON=C(C)c1cccc(C)n1)c1ncccc1C (single isomer, unassigned) [compound 328]",3.65^[b] (isomer B)
9,"CC(=NOCCCCON=C(CC(C)C)c1cccc(C)n1)c1cccc(C)n1 (single isomer, unassigned) [compound 331]",5.46^[b] (isomer A)
10,"C=C(CON=C(C)c1ccnc(C)c1)CON=C(C)c1cccc(C)n1 (single isomer, unassigned) [compound 362]",1.71^[b] (isomer B)
11,"CC(=NOCCCCON=C(C)c1sc(C)nc1C)c1cccc(C)n1 (single isomer, unassigned) [compound 374]",3.56^[b] (isomer B)
12,"CC(=NOCCCCCCON=C(C)c1nc(C)c(C)s1)c1cccc(C)n1 (single isomer, unassigned) [compound 389]",5.84^[b] (isomer A)
13,"C=C(CON=C(C)c1ccccn1)CON=C(C)c1cccc(C)n1 (single isomer, unassigned) [compound 400]",3.15^[b] (isomer B)
14,"C=C(CON=C(C)c1cccc(C)n1)CON=C(C)c1ccc(Cl)s1 (single isomer, unassigned) [compound 473]",4.91^[b] (isomer B)
15,"C=C(CON=C(C)c1cccc(C)n1)CON=C(C)c1ncccc1C (single isomer, unassigned) [compound 478]",3.11^[b] (isomer B)
16,"C=CCCC(=NOCCCCCCON=C(C)c1cccc(C)n1)c1ncccc1C (single isomer, unassigned) [compound 523]",4.91^[b] (isomer A)
17,"C=CCCC(=NOCCCCCCON=C(C)c1cccc(C)n1)c1ncccc1C (single isomer, unassigned) [compound 524]",5.65^[b] (isomer B)
18,"CC(=NOCCCCON=C(c1cccc(C)n1)C(C)C)c1cccc(C)n1 (single isomer, unassigned) [compound 525]",3.65^[b] (isomer A)
19,"CC(=NOCCCCCCON=C(c1cccc(C)n1)C(C)C)c1cccc(C)n1 (single isomer, unassigned) [compound 526]",4.91^b](isomer A)
20,"CC(=NOCCCCCCON=C(c1cccc(C)n1)C(C)C)c1cccc(C)n1 (single isomer, unassigned) [compound 527]",6.03^[b](isomer B)

# Same assay, conditions: value marked [c]
row,SMILES,logP
1,"CC(=NOCC1(CON=C(C)c2nc(C)ccc2C)CCCC1)c1nc(C)ccc1C (single isomer, unassigned) [Compound 763]",6.32^[c]
2,"C=C(CON=C(C)c1nc(C)ccc1C)CON=C(C)c1nc(C)ccc1C (single isomer, unassigned) [compound 308]",2.94^[c]
